Data reported in patent publication US8921576B2, “Spiroindoline compound, and medicinal agent comprising same” (Kowa Company, Ltd., priority 2011, dated 2014).

System: normal mice (C57BL/6j mice)
Assay: Oral glucose tolerance test after single administration of test compound in normal mice
Format: in vivo
Settings: 30 mg/kg oral in 10% Gelucire44/14; 2 g/kg glucose oral 30 minutes later; versus solvent alone; FIG. 1
Method: FIG. 1 is a view showing the results of an oral sugar tolerance test that was carried out after completion of a single administration of the compound of Example 68, in which the 30 mg/kg compound was orally administered to normal mice, and 30 minutes later, 2 g/kg glucose was orally administered thereto, followed by confirmation of a hypoglycemic action of the compound.
The test compound (Example 68) (30 mg/kg) suspended in 10% (v/v) Gelucire44/14 (GATTEFOSSE) was orally administered to normal mice (C57BL/6j mice, CLEA Japan, Inc.). Thirty minutes later, 2 g/kg glucose was orally administered to the mice. The blood glucose level was measured using an automatic blood glucose level measurement apparatus (Medisafe, TERUMO), before administration of the test compound, 25 minutes after administration of the test compound, and 15, 30, 60, and 120 minutes after administration of glucose. Thus, the action of the test compound to lower blood glucose level was evaluated.

Structure (SMILES)	blood glucose level (action to lower blood glucose level)
CC(=O)N1CCC2(C1)CN(C(=O)Nc1ncc(F)s1)c1ccc(Cl)cc12 (centres unmarked) [Example 68, 1′-acetyl-5-chloro-N-(5-fluorothiazol-2-yl)spiro[indoline-3,3′-pyrrolidine]-1-carboxamide]	lower than that of the mice orally administered with the solvent alone

Target: T1, GST-GK derived from human liver GK (Homo sapiens, UniProt P35557)
T1 construct: made in house; host or cells: Escherichia coli DH5α
T1 sequence (P35557 1-466 isoform P35557-2): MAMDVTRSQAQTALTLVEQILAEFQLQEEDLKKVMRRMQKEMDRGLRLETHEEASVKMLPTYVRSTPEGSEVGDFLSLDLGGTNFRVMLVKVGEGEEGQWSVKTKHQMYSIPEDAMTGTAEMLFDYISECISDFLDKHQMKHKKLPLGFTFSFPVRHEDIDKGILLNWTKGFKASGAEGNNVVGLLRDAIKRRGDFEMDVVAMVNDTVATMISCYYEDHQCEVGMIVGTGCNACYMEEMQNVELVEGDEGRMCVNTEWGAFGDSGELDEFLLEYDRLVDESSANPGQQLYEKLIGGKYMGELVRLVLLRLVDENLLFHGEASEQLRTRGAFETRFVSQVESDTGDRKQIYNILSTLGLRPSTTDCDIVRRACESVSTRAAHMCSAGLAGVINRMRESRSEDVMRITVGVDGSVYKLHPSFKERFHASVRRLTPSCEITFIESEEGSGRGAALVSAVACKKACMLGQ
Assay: In vitro GK activity measurement test (G6PDH-coupled, OD340)
Format: biochemical
Settings: test compound 1 μmol/L; glucose 2.5 mmol/L; 25° C.; OD340 slope with compound / without compound; read-out: GK activation rate (%)
Method in brief: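 GST-fused human liver glucokinase (variant 2, E. coli-expressed) at 0.1 μg/mL final, in pH 7.1 Hepes with 2.5 mmol/L glucose, 5 mmol/L ATP, NADP and G6PDH coupling, at 25° C. OD340 slope monitored over 10 min. Activation rate is slope with test compound (1 μmol/L) divided by slope without.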

Structure (SMILES)	activity at 1 µM
COC(=O)N1CC[C@@]2(C1)CN(C(=O)Nc1ncc(Cl)s1)c1ccc(Br)cc12 [Example 320, (S)-methyl 5-bromo-1-((5-chlorothiazol-2-yl)carbamoyl)spiro[indoline-3,3′-pyrrolidin]-1′-ylcarboxylate]	818%
CNC(=O)N1CCC2(C1)CN(C(=O)Nc1ncc(Cl)s1)c1ccc(CCCC(=O)N3CCC3)cc12 (centres unmarked) [Example 424, 5-(4-(Azetidin-1-yl)-4-oxobutyl)-N1-(5-chlorothiazol-2-yl)-N1′-methylspiro[indoline-3,3′-pyrrolidine]-1,1′-dicarboxamide]	438%
COc1cnc(NC(=O)N2CC3(CCN(C(C)=O)C3)c3cc(C(F)(F)F)ccc32)s1 (centres unmarked) [Example 437, 1′-Acetyl-N-(5-methoxythiazol-2-yl)-5-(trifluoromethyl)spiro[indoline-3,3′-pyrrolidine]-1-carboxamide]	506%
COC(=O)N1CCC2(C1)CN(C(=O)Nc1ncc(SCCCC(=O)N3CC(O)C3)s1)c1ccc(Cl)cc12 (centres unmarked) [Example 170, methyl 5-chloro-1-((5-((4-(3-hydroxyazetidin-1-yl)-4-oxobutyl)thio)thiazol-2-yl)carbamoyl)spiro[indoline-3,3′-pyrrolidine]-1′-carboxylate]	506%
COc1ccc2nc(NC(=O)N3CC4(CCN(C(C)=O)C4)c4cc(S(=O)(=O)NCc5cccs5)ccc43)sc2n1 (centres unmarked) [Example 273, 1′-Acetyl-N-(5-methoxythiazolo[5,4-b]pyridin-2-yl)-5-(N-(thiophen-2-ylmethyl)sulfamoyl)spiro[indoline-3,3′-pyrrolidine]-1-carboxamide]	692%

Results, then the compound that gave them:

activity at 1 µM	Structure (SMILES)
597%	COc1ccc2nc(NC(=O)N3CC4(CCN(C(C)=O)C4)c4cc(S(=O)(=O)NCc5ccccc5OC)ccc43)sc2n1 (centres unmarked) [Example 263, 1′-Acetyl-5-(N-(2-methoxybenzyl)sulfamoyl)-N-(5-methoxythiazolo[5,4-b]pyridin-2-yl)spiro[indoline-3,3′-pyrrolidine]-1-carboxamide]
429%	NCC(=O)N1CCC2(C1)CN(C(=O)Nc1ncc(Cl)s1)c1ccc(Br)cc12 (centres unmarked) [Example 20, 1′-(2-aminoacetyl)-5-bromo-N-(5-chlorothiazol-2-yl)spiro[indoline-3,3′-pyrrolidine]-1-carboxamide]
514%	COC(=O)N1CCC2(C1)CN(C(=O)Nc1ncc(SCCCO)s1)c1ccc(Cl)cc12 (centres unmarked) [Example 161, Methyl 5-chloro-1-((5-((3-hydroxypropyl)thio)thiazol-2-yl)carbamoyl)spiro[indoline-3,3′-pyrrolidine]-1′-carboxylate]
843%	COc1ccc2nc(NC(=O)N3CC4(CCN(C(C)=O)C4)c4cc(S(=O)(=O)N(CCO)CC5CC5)ccc43)sc2n1 (centres unmarked) [Example 302, 1′-acetyl-5-(N-(cyclopropylmethyl)-N-(2-hydroxyethyl)sulfamoyl)-N-(5-methoxythiazolo[5,4-b]pyridin-2-yl)spiro[indoline-3,3′-pyrrolidine]-1-carboxamide]
640%	COc1ccc2nc(NC(=O)N3CC4(CCN(C(C)=O)C4)c4cc(S(=O)(=O)NCc5ccccc5F)ccc43)sc2n1 (centres unmarked) [Example 269, 1′-Acetyl-5-(N-(2-fluorobenzyl)sulfamoyl)-N-(5-methoxythiazolo[5,4-b]pyridin-2-yl)spiro[indoline-3,3′-pyrrolidine]-1-carboxamide]
602%	O=C(NO)N1CCC2(C1)CN(C(=O)Nc1ncc(Cl)s1)c1ccc(Cl)cc12 (centres unmarked) [Example 481, 5-chloro-N1-(5-chlorothiazol-2-yl)-N1′-hydroxyspiro[indoline-3,3′-pyrrolidine]-1,1′-dicarboxamide]
537%	O=C(NCCO)N1CCC2(C1)CN(C(=O)Nc1ncc(Cl)s1)c1ccc(Cl)cc12 (centres unmarked) [Example 459, 5-chloro-N1-(5-chlorothiazol-2-yl)-N1′-(2-hydroxyethyl)spiro[indoline-3,3′-pyrrolidine]-1,1′-dicarboxamide]
636%	CNC(=O)N1CC[C@@]2(C1)CN(C(=O)Nc1ncc(OC)s1)c1ccc(Cl)cc12 [Example 380, (R)-5-Chloro-N1-(5-methoxythiazol-2-yl)-N1′-methylspiro[indoline-3,3′-pyrrolidine]-1,1′-dicarboxamide]
